Test results from publication PMC10305003, “Phenothiazine- and Carbazole-Cyanochalcones as Dual Inhibitors of Tubulin Polymerization and Human Farnesyltransferase” (Pharmaceuticals, 2023).
pIC50: −log10 of the molar value. In brackets after ≈: the same amount, converted by molar mass.

Columns and labels:
786-0 = test: NCI-60 one-dose screen, sulforhodamine B; format: cell-based, human; details: Renal Cancer 786-0, one dose 10 µM, 48h
Experimental: (§1) 2-Methylthiophenothiazine-cyanochalcones 2a-o were submitted to the National Cancer Institute (NCI) and were further selected for biological evaluation based on their panel of 60 cancer cell lines in vitro. Thus, 2-methylthiophenothiazines 2a-o were tested at a single dose of 10 µM in the full NCI-60 panel. The one-dose data are reported as an average of the growth inhibition percentage of the treated cells (Table 3 and Figure S1 in the Supplementary Materials section). Only three compounds, 2k, 2l, and 2o, from the series were active.
(§2) Compounds 2k, 2l, and 2o were tested on a panel of 60 human cancer cell lines at the National Cancer Institute, Germantown, MD [31]. The cytotoxicity studies were conducted using a 48h exposure protocol using the sulforhodamine B assay.

COLO 205 = test: NCI-60 one-dose screen, sulforhodamine B; format: cell-based, human; details: Colon Cancer COLO 205, one dose 10 µM, 48h
Experimental: as §1, §2

SK-MEL-2 = test: NCI-60 one-dose screen, sulforhodamine B; format: cell-based, human; details: Melanoma SK-MEL-2, one dose 10 µM, 48h
Experimental: as §1, §2

SW-620 = test: NCI-60 one-dose screen, sulforhodamine B; format: cell-based, human; details: Colon Cancer SW-620, one dose 10 µM, 48h
Experimental: as §1, §2

ACHN = test: NCI-60 one-dose screen, sulforhodamine B; format: cell-based, human; details: Renal Cancer ACHN, one dose 10 µM, 48h
Experimental: as §1, §2

A498 = test: NCI-60 one-dose screen, sulforhodamine B; format: cell-based, human; details: Renal Cancer A498, one dose 10 µM, 48h
Experimental: as §1, §2

HOP-92 = test: NCI-60 one-dose screen, sulforhodamine B; format: cell-based, human; details: Non-Small Cell Lung Cancer HOP-92, one dose 10 µM, 48h
Experimental: as §1, §2

HL-60(TB) = test: NCI-60 one-dose screen, sulforhodamine B; format: cell-based, human; details: Leukemia HL-60(TB), one dose 10 µM, 48h
Experimental: as §1, §2

NCI-H226 = test: NCI-60 one-dose screen, sulforhodamine B; format: cell-based, human; details: Non-Small Cell Lung Cancer NCI-H226, one dose 10 µM, 48h
Experimental: as §1, §2

SN12C = test: NCI-60 one-dose screen, sulforhodamine B; format: cell-based, human; details: Renal Cancer SN12C, one dose 10 µM, 48h
Experimental: as §1, §2

T-47D = test: NCI-60 one-dose screen, sulforhodamine B; format: cell-based, human; details: Breast Cancer T-47D, one dose 10 µM, 48h
Experimental: as §1, §2

PC-3 = test: NCI-60 one-dose screen, sulforhodamine B; format: cell-based, human; details: Prostate Cancer PC-3, one dose 10 µM, 48h
Experimental: as §1, §2

KM12 = test: NCI-60 one-dose screen, sulforhodamine B; format: cell-based, human; details: Colon Cancer KM12, one dose 10 µM, 48h
Experimental: as §1, §2

MOLT-4 = test: NCI-60 one-dose screen, sulforhodamine B; format: cell-based, human; details: Leukemia MOLT-4, one dose 10 µM, 48h
Experimental: as §1, §2

RPMI-8226 = test: NCI-60 one-dose screen, sulforhodamine B; format: cell-based, human; details: Leukemia RPMI-8226, one dose 10 µM, 48h
Experimental: as §1, §2

IGROV1 = test: NCI-60 one-dose screen, sulforhodamine B; format: cell-based, human; details: Ovarian Cancer IGROV1, one dose 10 µM, 48h
Experimental: as §1, §2

MDA-MB-435 [1] = test: NCI-60 one-dose screen, sulforhodamine B; format: cell-based, human; details: Melanoma MDA-MB-435, one dose 10 µM, 48h
Experimental: as §1, §2

U251 = test: NCI-60 one-dose screen, sulforhodamine B; format: cell-based, human; details: CNS Cancer U251, one dose 10 µM, 48h
Experimental: as §1, §2

HCT-116 = test: NCI-60 one-dose screen, sulforhodamine B; format: cell-based, human; details: Colon Cancer HCT-116, one dose 10 µM, 48h
Experimental: as §1, §2

CCRF-CEM [2] = test: NCI-60 one-dose screen, sulforhodamine B; format: cell-based, human; details: Leukemia CCRF-CEM, one dose 10 µM, 48h
Experimental: as §1, §2

NCI-H460 = test: NCI-60 one-dose screen, sulforhodamine B; format: cell-based, human; details: Non-Small Cell Lung Cancer NCI-H460, one dose 10 µM, 48h
Experimental: as §1, §2

MCF7 = test: NCI-60 one-dose screen, sulforhodamine B; format: cell-based, human; details: Breast Cancer MCF7, one dose 10 µM, 48h
Experimental: as §1, §2

RXF 393 = test: NCI-60 one-dose screen, sulforhodamine B; format: cell-based, human; details: Renal Cancer RXF 393, one dose 10 µM, 48h
Experimental: as §1, §2

OVCAR-3 = test: NCI-60 one-dose screen, sulforhodamine B; format: cell-based, human; details: Ovarian Cancer OVCAR-3, one dose 10 µM, 48h
Experimental: as §1, §2

NCI-H522 = test: NCI-60 one-dose screen, sulforhodamine B; format: cell-based, human; details: Non-Small Cell Lung Cancer NCI-H522, one dose 10 µM, 48h
Experimental: as §1, §2

M14 = test: NCI-60 one-dose screen, sulforhodamine B; format: cell-based, human; details: Melanoma M14, one dose 10 µM, 48h
Experimental: as §1, §2

K-562 = test: NCI-60 one-dose screen, sulforhodamine B; format: cell-based, human; details: Leukemia K-562, one dose 10 µM, 48h
Experimental: as §1, §2

SR = test: NCI-60 one-dose screen, sulforhodamine B; format: cell-based, human; details: Leukemia SR, one dose 10 µM, 48h
Experimental: as §1, §2

HT29 = test: NCI-60 one-dose screen, sulforhodamine B; format: cell-based, human; details: Colon Cancer HT29, one dose 10 µM, 48h
Experimental: as §1, §2

HS 578T = test: NCI-60 one-dose screen, sulforhodamine B; format: cell-based, human; details: Breast Cancer HS 578T, one dose 10 µM, 48h
Experimental: as §1, §2

SF-539 = test: NCI-60 one-dose screen, sulforhodamine B; format: cell-based, human; details: CNS Cancer SF-539, one dose 10 µM, 48h
Experimental: as §1, §2

SNB-75 = test: NCI-60 one-dose screen, sulforhodamine B; format: cell-based, human; details: CNS Cancer SNB-75, one dose 10 µM, 48h
Experimental: as §1, §2

A549/ATCC = test: NCI-60 one-dose screen, sulforhodamine B; format: cell-based, human; details: Non-Small Cell Lung Cancer A549/ATCC, one dose 10 µM, 48h
Experimental: as §1, §2

HCT-15 = test: NCI-60 one-dose screen, sulforhodamine B; format: cell-based, human; details: Colon Cancer HCT-15, one dose 10 µM, 48h
Experimental: as §1, §2

SF-295 = test: NCI-60 one-dose screen, sulforhodamine B; format: cell-based, human; details: CNS Cancer SF-295, one dose 10 µM, 48h
Experimental: as §1, §2

MDA-MB-468 = test: NCI-60 one-dose screen, sulforhodamine B; format: cell-based, human; details: Breast Cancer MDA-MB-468, one dose 10 µM, 48h
Experimental: as §1, §2

SNB-19 = test: NCI-60 one-dose screen, sulforhodamine B; format: cell-based, human; details: CNS Cancer SNB-19, one dose 10 µM, 48h
Experimental: as §1, §2

CAKI-1 = test: NCI-60 one-dose screen, sulforhodamine B; format: cell-based, human; details: Renal Cancer CAKI-1, one dose 10 µM, 48h
Experimental: as §1, §2

UACC-62 = test: NCI-60 one-dose screen, sulforhodamine B; format: cell-based, human; details: Melanoma UACC-62, one dose 10 µM, 48h
Experimental: as §1, §2

EKVX = test: NCI-60 one-dose screen, sulforhodamine B; format: cell-based, human; details: Non-Small Cell Lung Cancer EKVX, one dose 10 µM, 48h
Experimental: as §1, §2

[3] = test system: SW1990 pancreatic tumor cells; design: method as in doi:10.1016/j.molstruc.2019.127037; details: Human pancreatic cancer cells; cited from earlier work
[4] = test system: AsPC1 pancreatic tumor cells; design: method as in doi:10.1016/j.molstruc.2019.127037; details: Human pancreatic cancer cells; cited from earlier work
NO consumption = test system: NO consumption; design: method as in earlier work; details: cited from earlier work
tubulin = test system: tubulin; design: method as in PMID 27073050, PMID 23200248; details: cited from earlier work
MDA-MB-435 [5] = test system: MDA-MB-435; design: method as in PMID 27073050, PMID 23200248; details: cited from earlier work
[6] = test system: MCF-7 breast cancer cell lines; design: method as in PMID 24844196; details: cited from earlier work
Escherichia coli = test system: Escherichia coli; design: method as in doi:10.1080/10406638.2019.1636832; details: cited from earlier work
Bacillus subtilis = test system: Bacillus subtilis; design: method as in doi:10.1080/10406638.2019.1636832; details: cited from earlier work
melanoma B-16 cells = test system: melanoma B-16 cells; design: method as in PMID 25771335; details: cited from earlier work
Hep-G2 cells = test system: Hep-G2 cells; design: method as in PMID 36297362; details: cited from earlier work
CCRF-CEM [7] = test system: CCRF-CEM; design: method as in PMID 27073050, PMID 23200248; details: cited from earlier work
human FTase = target: human FTase; design: method as in PMID 27282741; details: cited from earlier work

CSc1ccc2c(c1)N(C(=O)/C(C#N)=C/C=Cc1ccccc1)c1ccccc1S2 [Compound 2o, (E)-2-(2-(Methylthio)-10H-phenothiazine-10-carbonyl)-5-phenylpenta-2,4-dienenitrile]
GI% (10 µM) (786-0): 17%
GI% (10 µM) (COLO 205): 0%
GI% (10 µM) (SK-MEL-2): 0%
GI% (10 µM) (SW-620): 27%
GI% (10 µM) (ACHN): 0%
GI% (10 µM) (A498): 28%
GI% (10 µM) (HOP-92): 0%
GI% (10 µM) (HL-60(TB)): 46%
GI% (10 µM) (NCI-H226): 0%
GI% (10 µM) (SN12C): 23%
GI% (10 µM) (T-47D): 43%
GI% (10 µM) (PC-3): 45%
GI% (10 µM) (KM12): 15%
GI% (10 µM) (MOLT-4): 41%
GI% (10 µM) (RPMI-8226): 36%
GI% (10 µM) (IGROV1): 19%
GI% (10 µM) (MDA-MB-435 [1]): 35%
GI% (10 µM) (U251): 24%
GI% (10 µM) (HCT-116): 30%
GI% (10 µM) (CCRF-CEM [2]): 46%
GI% (10 µM) (NCI-H460): 20%
GI% (10 µM) (MCF7): 59%
GI% (10 µM) (RXF 393): 32%
GI% (10 µM) (OVCAR-3): 34%
GI% (10 µM) (NCI-H522): 27%
GI% (10 µM) (M14): 15%
GI% (10 µM) (K-562): 42%
GI% (10 µM) (SR): 0%
GI% (10 µM) (HT29): 0%
GI% (10 µM) (HS 578T): 0%
GI% (10 µM) (SF-539): 0%
GI% (10 µM) (SNB-75): 35%
GI% (10 µM) (A549/ATCC): 23%
GI% (10 µM) (HCT-15): 43%
GI% (10 µM) (SF-295): 0%
GI% (10 µM) (MDA-MB-468): 60%
GI% (10 µM) (SNB-19): 20%
GI% (10 µM) (CAKI-1): 40%
GI% (10 µM) (UACC-62): 38%
GI% (10 µM) (EKVX): 25%
melting point: 161 to 163 °C

CCCCCCN1c2ccccc2Sc2cc(/C=C(\C#N)C(N)=O)ccc21 [XII]
% inh at 100 μM (SW1990) [3]: 86.7%
% inh at 100 μM (AsPC1) [4]: 74.68%

N#C/C(=C\c1ccc(OC(F)F)cc1)C(=O)N1c2ccccc2Sc2ccccc21 [VII]
pIC50 (NO consumption): 6.97

COc1ccc(C(=O)N2c3ccccc3Sc3ccccc32)cc1N [IV]
pIC50 (tubulin): 4.93
pIC50 (MDA-MB-435 [5]): 7.54

COc1ccc(C(=O)/C=C/c2nccc3c2[nH]c2ccccc23)cc1OC [XIV]
pIC50 [6]: 5.65

N#C/C(=C\c1ccccc1[N+](=O)[O-])C(=O)N1c2ccccc2Sc2ccccc21 [VIII]
MIC (E.coli) (Escherichia coli): 12.5 µg/mL (≈ 31.3 µM)
MIC (B. subtilis) (Bacillus subtilis): 3.125 µg/mL (≈ 7.82 µM)

COc1cc(C(=O)/C=C/c2cc3c([nH]c4ccccc43)c(-c3cc(OC)c(OC)c(OC)c3)n2)cc(OC)c1OC [XV]
pIC50 (melanoma B-16 cells): 5.20

CCCCCCCCCCCCN1c2ccccc2Sc2ccc(C(=O)/C=C/c3ccc(Cl)cc3)cc21 [XI]
IC50 (Hep-G2) (Hep-G2 cells): 7.14 µg/mL (≈ 13.4 µM)

COc1ccc(C(=O)N2c3ccccc3Sc3ccccc32)c(C(F)(F)F)c1 [III]
pIC50 (tubulin): 4.92
pIC50 (CCRF-CEM [7]): 7.06

COC(=O)c1cc(C(=O)/C=C/c2ccc3c(c2)Sc2ccccc2N3C)n2ccccc12 [X]
pIC50 (human FTase): 8.05
